Test system: Puccinia triticina
Test: Fungicidal activity: Wheat Brown Rust (PUCCRT)
Format: in vivo
Details: 24 h, High Volume (100 ppm), 1 Day Protectant, read-out: PUCCRT 1 DP disease control
Protocol: (§1) Technical grades of materials were dissolved in acetone, which were then mixed with nine volumes of water containing 110 ppm Triton X-100. The fungicide solutions were applied onto wheat seedlings using an automated booth sprayer to run-off. All sprayed plants were allowed to air dry prior to further handling. All fungicides were evaluated using the aforementioned method for their activity vs. all target diseases, unless stated otherwise. Wheat leaf blotch and brown rust activity were also evaluated using track spray applications, in which case the fungicides were formulated as EC formulations, containing 0.1% Trycol 5941 in the spray solutions. Wheat plants (variety Yuma) were grown from seed in a greenhouse in 50% mineral soil/50% soil-less Metro mix until the first leaf was fully emerged, with 7-10 seedlings per pot. These plants were inoculated with an aqueous spore suspension of Septoria tritici either prior to or after fungicide treatments. After inoculation the plants were kept in 100% relative humidity (one day in a dark dew chamber followed by two to three days in a lighted dew chamber at 20° C.) to permit spores to germinate and infect the leaf. The plants were then transferred to a greenhouse set at 20° C. for disease to develop. When disease symptoms were fully expressed on the 1st leaves of untreated plants, infection levels were assessed on a scale of 0 to 100 percent disease severity. Percent disease control was calculated using the ratio of disease severity on treated plants relative to untreated plants. Evaluation of Fungicidal Activity: Wheat Brown Rust (Puccinia triticina; Synonym: Puccinia recondite f. Sp. Tritici; Bayer Code PUCCRT) Wheat plants (variety Yuma) were grown from seed in a greenhouse in 50% mineral soil/50% soil-less Metro mix until the first leaf was fully emerged, with 7-10 seedlings per pot. These plants were inoculated with an aqueous spore suspension of Puccinia triticina either prior to or after fungicide treatments. After inoculation the plants were kept in a dark dew room at 22° C. with 100% relative humidity overnight to permit spores to germinate and infect the leaf. The plants were then transferred to a greenhouse set at 24° C. for disease to develop. Fungicide formulation, application and disease assessment followed the procedures as described in the Example A.

| SMILES | pest or weed control at 100 µg/mL |
| --- | --- |
| CCC[C@H]1COC[C@H](NC(=O)c2nccc(OC)c2O)C(=O)O[C@@H](C)[C@@H]1Cc1ccccc1 [compound 126] | > 70% |
| COc1ccnc(C(=O)N[C@H]2COC[C@@H]3CCCC[C@H]3[C@H](C)OC2=O)c1OCOC(C)=O [compound 6] | > 70% |
| CCCC[C@@H]1[C@@H](Cc2ccc(C(F)(F)F)cc2)COC[C@H](NC(=O)c2nccc(OC)c2O)C(=O)O[C@H]1C [compound 123] | < 70% |
| COc1ccnc(C(=O)N[C@H]2COC[C@H](Cc3ccc(Cl)cc3)[C@@H](Cc3ccccc3)[C@H](C)OC2=O)c1O [compound 135] | > 70% |
| COc1ccnc(C(=O)N[C@H]2COC[C@H](CCC(C)C)[C@@H](CCC(C)C)[C@H](C)OC2=O)c1O [compound 117] | > 70% |
| COc1ccnc(C(=O)N[C@H]2COC[C@H](Cc3ccccc3)[C@@H](COCC(C)C)[C@H](C)OC2=O)c1O [compound 121] | < 70% |
| COc1ccnc(C(=O)N[C@H]2COC[C@H](Cc3ccccc3)[C@@H](Cc3ccccc3)[C@@H](C)OC2=O)c1OCOC(C)=O [compound 2] | < 70% |
| COc1ccnc(C(=O)N[C@H]2COC[C@H](CCCc3ccccc3)[C@@H](Cc3ccc(OC(F)(F)F)cc3)[C@H](C)OC2=O)c1O [compound 146] | < 70% |

Same assay, conditions: 24 h, Low Volume (121.5 g/H), 1 Day Protectant, read-out: PUCCRT 1 DP disease control

| SMILES | pest or weed control at 121.5 g/ha |
| --- | --- |
| COc1ccnc(C(=O)N[C@H]2COC[C@H](CC3CC3)[C@@H](c3ccccc3)[C@H](C)OC2=O)c1OCOC(C)=O [compound 101] | > 70% |
| COc1ccnc(C(=O)N[C@H]2COC[C@H](CC3CC3)[C@@H](Cc3ccc(F)cc3)[C@H](C)OC2=O)c1OCOC(C)=O [compound 104] | > 70% |
| CCC[C@H]1COC[C@H](NC(=O)c2nccc(OC)c2OC(C)=O)C(=O)O[C@@H](C)[C@@H]1CC(C)C [compound 64] | > 70% |
| COc1ccnc(C(=O)N[C@H]2COC[C@H](Cc3ccccc3)[C@@H](c3ccccc3)[C@H](C)OC2=O)c1OCOC(C)=O [compound 53] | > 70% |

Same assay, conditions: 72 h, High Volume (100 ppm), 3 Day Curative, read-out: PUCCRT 3 DC disease control

| SMILES | pest or weed control at 100 µg/mL |
| --- | --- |
| CCC[C@H]1COC[C@H](NC(=O)c2nccc(OC)c2O)C(=O)O[C@@H](C)[C@@H]1Cc1ccccc1 [compound 126] | > 70% |
| CCCC[C@@H]1[C@@H](Cc2ccc(C(F)(F)F)cc2)COC[C@H](NC(=O)c2nccc(OC)c2O)C(=O)O[C@H]1C [compound 123] | < 70% |
| COc1ccnc(C(=O)N[C@H]2COC[C@H](Cc3ccc(Cl)cc3)[C@@H](Cc3ccccc3)[C@H](C)OC2=O)c1O [compound 135] | < 70% |
| COc1ccnc(C(=O)N[C@H]2COC[C@H](CCC(C)C)[C@@H](CCC(C)C)[C@H](C)OC2=O)c1O [compound 117] | > 70% |
| COc1ccnc(C(=O)N[C@H]2COC[C@H](Cc3ccccc3)[C@@H](COCC(C)C)[C@H](C)OC2=O)c1O [compound 121] | < 70% |
| COc1ccnc(C(=O)N[C@H]2COC[C@H](Cc3ccccc3)[C@@H](Cc3ccccc3)[C@@H](C)OC2=O)c1OCOC(C)=O [compound 2] | < 70% |
| COc1ccnc(C(=O)N[C@H]2COC[C@H](CCCc3ccccc3)[C@@H](Cc3ccc(OC(F)(F)F)cc3)[C@H](C)OC2=O)c1O [compound 146] | < 70% |

Same assay, conditions: 72 h, Low Volume (121.5 g/H), 3 Day Curative, read-out: PUCCRT 3 DC disease control

| SMILES | pest or weed control at 121.5 g/ha |
| --- | --- |
| COc1ccnc(C(=O)N[C@H]2COC[C@H](CC3CC3)[C@@H](c3ccccc3)[C@H](C)OC2=O)c1OCOC(C)=O [compound 101] | > 70% |
| COc1ccnc(C(=O)N[C@H]2COC[C@H](CC3CC3)[C@@H](Cc3ccc(F)cc3)[C@H](C)OC2=O)c1OCOC(C)=O [compound 104] | > 70% |
| CCC[C@H]1COC[C@H](NC(=O)c2nccc(OC)c2OC(C)=O)C(=O)O[C@@H](C)[C@@H]1CC(C)C [compound 64] | > 70% |
| COc1ccnc(C(=O)N[C@H]2COC[C@H](Cc3ccccc3)[C@@H](c3ccccc3)[C@H](C)OC2=O)c1OCOC(C)=O [compound 53] | > 70% |

Test system: Mycosphaerella graminicola; Anamorph: Septoria tritici
Test: Fungicidal activity: Leaf Blotch of Wheat (SEPTTR)
Format: in vivo
Details: Zymoseptoria tritici, 24 h; High Volume (100 ppm), 1 Day Protectant, wheat leaf blotch; read-out: SEPTTR 1 DP disease control
Protocol: as §1, with “Evaluation of Fungicidal Activity: Leaf Blotch of Wheat (Mycosphaerella graminicola; Anamorph: Septoria tritici; Bayer Code […]) Technical” for “Technical”, “plants.” for “plants. Evaluation of Fungicidal Activity: Wheat Brown Rust (Puccinia triticina; Synonym: Puccinia recondite f. Sp. Tritici; Bayer Code PUCCRT) Wheat plants (variety Yuma) were grown from seed in a greenhouse in 50% mineral soil/50% soil-less Metro mix until the first leaf was fully emerged, with 7-10 seedlings per pot. These plants were inoculated with an aqueous spore suspension of Puccinia triticina either prior to or after fungicide treatments. After inoculation the plants were kept in a dark dew room at 22° C. with 100% relative humidity overnight to permit spores to germinate and infect the leaf. The plants were then transferred to a greenhouse set at 24° C. for disease to develop. Fungicide formulation, application and disease assessment followed the procedures as described in the Example A.”

| SMILES | pest or weed control at 100 µg/mL |
| --- | --- |
| CCC[C@H]1COC[C@H](NC(=O)c2nccc(OC)c2O)C(=O)O[C@@H](C)[C@@H]1Cc1ccccc1 [compound 126] | > 70% |
| COc1ccnc(C(=O)N[C@H]2COC[C@@H]3CCCC[C@H]3[C@H](C)OC2=O)c1OCOC(C)=O [compound 6] | < 70% |
| CCCC[C@@H]1[C@@H](Cc2ccc(C(F)(F)F)cc2)COC[C@H](NC(=O)c2nccc(OC)c2O)C(=O)O[C@H]1C [compound 123] | < 70% |
| COc1ccnc(C(=O)N[C@H]2COC[C@H](Cc3ccc(Cl)cc3)[C@@H](Cc3ccccc3)[C@H](C)OC2=O)c1O [compound 135] | > 70% |
| COc1ccnc(C(=O)N[C@H]2COC[C@H](CCC(C)C)[C@@H](CCC(C)C)[C@H](C)OC2=O)c1O [compound 117] | > 70% |
| COc1ccnc(C(=O)N[C@H]2COC[C@H](Cc3ccccc3)[C@@H](COCC(C)C)[C@H](C)OC2=O)c1O [compound 121] | < 70% |
| COc1ccnc(C(=O)N[C@H]2COC[C@H](Cc3ccccc3)[C@@H](Cc3ccccc3)[C@@H](C)OC2=O)c1OCOC(C)=O [compound 2] | < 70% |
| COc1ccnc(C(=O)N[C@H]2COC[C@H](CCCc3ccccc3)[C@@H](Cc3ccc(OC(F)(F)F)cc3)[C@H](C)OC2=O)c1O [compound 146] | < 70% |

Same assay, conditions: Zymoseptoria tritici, 24 h; Low Volume (121.5 g/H), 1 Day Protectant, wheat leaf blotch; read-out: SEPTTR 1 DP disease control

| SMILES | pest or weed control at 121.5 g/ha |
| --- | --- |
| COc1ccnc(C(=O)N[C@H]2COC[C@H](CC3CC3)[C@@H](c3ccccc3)[C@H](C)OC2=O)c1OCOC(C)=O [compound 101] | > 70% |
| COc1ccnc(C(=O)N[C@H]2COC[C@H](CC3CC3)[C@@H](Cc3ccc(F)cc3)[C@H](C)OC2=O)c1OCOC(C)=O [compound 104] | > 70% |
| CCC[C@H]1COC[C@H](NC(=O)c2nccc(OC)c2OC(C)=O)C(=O)O[C@@H](C)[C@@H]1CC(C)C [compound 64] | > 70% |
| COc1ccnc(C(=O)N[C@H]2COC[C@H](Cc3ccccc3)[C@@H](c3ccccc3)[C@H](C)OC2=O)c1OCOC(C)=O [compound 53] | > 70% |

Same assay, conditions: Zymoseptoria tritici, 72 h; High Volume (100 ppm), 3 Day Curative, wheat leaf blotch; read-out: SEPTTR 3 DC disease control

| SMILES | pest or weed control at 100 µg/mL |
| --- | --- |
| CCC[C@H]1COC[C@H](NC(=O)c2nccc(OC)c2O)C(=O)O[C@@H](C)[C@@H]1Cc1ccccc1 [compound 126] | > 70% |
| COc1ccnc(C(=O)N[C@H]2COC[C@@H]3CCCC[C@H]3[C@H](C)OC2=O)c1OCOC(C)=O [compound 6] | < 70% |
| CCCC[C@@H]1[C@@H](Cc2ccc(C(F)(F)F)cc2)COC[C@H](NC(=O)c2nccc(OC)c2O)C(=O)O[C@H]1C [compound 123] | < 70% |
| COc1ccnc(C(=O)N[C@H]2COC[C@H](Cc3ccc(Cl)cc3)[C@@H](Cc3ccccc3)[C@H](C)OC2=O)c1O [compound 135] | < 70% |
| COc1ccnc(C(=O)N[C@H]2COC[C@H](CCC(C)C)[C@@H](CCC(C)C)[C@H](C)OC2=O)c1O [compound 117] | < 70% |
| COc1ccnc(C(=O)N[C@H]2COC[C@H](Cc3ccccc3)[C@@H](COCC(C)C)[C@H](C)OC2=O)c1O [compound 121] | > 70% |
| COc1ccnc(C(=O)N[C@H]2COC[C@H](Cc3ccccc3)[C@@H](Cc3ccccc3)[C@@H](C)OC2=O)c1OCOC(C)=O [compound 2] | < 70% |
| COc1ccnc(C(=O)N[C@H]2COC[C@H](CCCc3ccccc3)[C@@H](Cc3ccc(OC(F)(F)F)cc3)[C@H](C)OC2=O)c1O [compound 146] | < 70% |

Same assay, conditions: Zymoseptoria tritici, 72 h; Low Volume (121.5 g/H), 3 Day Curative, wheat leaf blotch; read-out: SEPTTR 3 DC disease control

| SMILES | pest or weed control at 121.5 g/ha |
| --- | --- |
| COc1ccnc(C(=O)N[C@H]2COC[C@H](CC3CC3)[C@@H](c3ccccc3)[C@H](C)OC2=O)c1OCOC(C)=O [compound 101] | > 70% |
| COc1ccnc(C(=O)N[C@H]2COC[C@H](CC3CC3)[C@@H](Cc3ccc(F)cc3)[C@H](C)OC2=O)c1OCOC(C)=O [compound 104] | > 70% |
| CCC[C@H]1COC[C@H](NC(=O)c2nccc(OC)c2OC(C)=O)C(=O)O[C@@H](C)[C@@H]1CC(C)C [compound 64] | > 70% |
| COc1ccnc(C(=O)N[C@H]2COC[C@H](Cc3ccccc3)[C@@H](c3ccccc3)[C@H](C)OC2=O)c1OCOC(C)=O [compound 53] | > 70% |

Source: patent publication US9955691B2, “Macrocyclic picolinamides as fungicides” (DOW AGROSCIENCES LLC, priority 2014, dated 2018)
